The values below come from US20130295026A1, “FAST DISINTEGRATING COMPOSITIONS COMPRISING NABILONE AND RANDOMLY METHYLATED BETA CYCLODEXTRIN” (priority 2010, published 2013).

The nature of data set [1]: Amount of Nabilone solubilized by cyclodextrin solutions, determined by extraction of the drug from lyophilized complexes (HPLC). The conditions noted are these: for Increase of Nabilone solubility compared to water: water <0.5 μg/ml. Here is the method:
For the preparation of solubility isotherms, a surplus of Nabilone was added to a dilution series of cyclodextrins in distilled water. The surplus of Nabilone was approximately 130% of the maximum amount of Nabilone that could be resolved theoretically in the cyclodextrin solution. For the preparation of standard curves, an accurately weighted amount of Nabilone was added to an aqueous RAMEB solution. Then, the suspensions were stirred at 600 rpm at a constant temperature (4° C.-40° C.) in the cold room or in an environmental simulation chamber for the time periods indicated. Afterwards, the samples were centrifuged at 10,000 rpm and filtrated to remove undissolved particles prior to freeze-drying or HPLC analysis.
The filtrated solutions of the Nabilone—cyclodextrin complexes were frozen as a thin film on the inner side of round bottom glass container in a methanol—dry ice bath. Lyophilization was performed for 20 h using a Heto Power Dry LL3000 instrument (Thermo Fisher Scientific).
Freeze-dried products were stirred with acetonitrile for 30 min to promote complex dissociation and extraction of Nabilone. Samples were centrifuged and the residue was washed again two times with acetonitrile. Combined acetonitrile supernatants were evaporated under vacuum and the residue dissolved in a defined amount of acetonitrile. After centrifugation (10,000 rpm, 5 min) the content of Nabilone was measured using HPLC and related to 1 ml of the initial reaction solution.
Many cyclodextrins and cyclodextrin derivatives are not soluble in acetonitrile, which in contrast is the optimal solvent for Nabilone, preventing analysis of the Nabilone-cyclodextrin complexes with HPLC. […] The concentrations of the cyclodextrin solutions were adapted to their solubility in water. Whenever possible, concentrations of 15%, 20%, and 30% were selected.

For data set [2] the following is noted: 25° C; cited from earlier work.

Turning to `CCCCCCC(C)(C)c1cc(O)c2c(c1)OC(C)(C)C1CCC(=O)CC21` (stereo not drawn) [Nabilone], the “Nabilone solubility in water” value in data set [1] (H2O, no cyclodextrin) is 0.5 µg/mL. In data set [1] (water, thermodynamic from solid, Nabilone solubility in water, H2O, no cyclodextrin), the solubility (as a rule, the dissolved amount per volume that the medium holds) was < 0.5 µg/mL. The “Aqueous solubility of Nabilone” value in data set [2] is “less than 0.5 μg/ml”.

Consider hydroxypropyl-β-Cyclodextrin [HP-β-CD], for which the “Amount of Nabilone solubilized by 1 ml cyclodextrin solution” value (“Amount of Nabilone solubilized” below) was found to be 16.2 ± 5.4 µg/mL in data set [1] (15% cyclodextrin solution), 32.2 ± 0.1 µg/mL in data set [1] (20% cyclodextrin solution) and 44.5 ± 0.8 µg/mL in data set [1] (30% cyclodextrin solution). Also, in data set [1] (30% cyclodextrin solution), the “Increase of Nabilone solubility compared to water” value was 90 fold.

As to “randomly methylated β-Cyclodextrin [RAMEB]”, the “Amount of Nabilone solubilized” value in data set [1] (15% cyclodextrin solution) was 2620 ± 70 µg/mL; in data set [1] (20% cyclodextrin solution), 3330 ± 390 µg/mL; in data set [1] (30% cyclodextrin solution), 4,460±180 μg/ml. The “Increase of Nabilone solubility compared to water” value in data set [1] (30% cyclodextrin solution) is recorded as “up to 9.000 fold”.

Regarding “β-CD sulfobutyl ether sodium salt [SBE-β-CD]”, the “Amount of Nabilone solubilized” value in data set [1] (30% cyclodextrin solution) was <1 µg/mL.
